Test results: PMC11009625, “Antibiotic class with potent in vivo activity targeting lipopolysaccharide synthesis in Gram-negative bacteria” (Proceedings of the National Academy of Sciences of the …, 2024)
In brackets after ≈: the same amount, converted by molar mass. Like-named read-outs stand apart in the source and are kept apart here.

Key:
[1] = tested on: lpxH mutants of EN243 (Eco MG1655 ∆tolC); test: MIC, lpxH mutants with reduced susceptibility in efflux-defective E. coli background; format: cell-based; details: Escherichia coli
Description: Minimum inhibitory concentration (MIC) values were determined according to the Clinical Laboratory Standards Institute guidelines. Frequency of resistance was determined by plating ~5 × 10^8 bacterial cells on agar-solidified media plates containing test compound at concentrations corresponding to four times the measured solid-media MIC of the strains. Colonies were counted after 24 h, restreaked onto media containing the same concentration of compound, and the MIC remeasured against the assayed compound. Genomic DNA from isolated clones was sequenced by paired-end sequencing on an Illumina MiSeq device. Complete experimental details available in SI Appendix. […]
(§1) Minimum inhibitory concentration (MIC) determination. Broth microdilution and agar dilution MIC assays were conducted according to CLSI guidelines (M07-2012). Appropriate inoculation suspension density was assessed using a Sensititre Nephelometer with a Sensititre 0.5 […]
McFarland Standard. […]
Frequency of Resistance. Frequency of resistance was assessed by spread plating between […] cfu of a freshly-grown culture of the strain of interest on plates containing a concentration of compound corresponding to 4 times the MIC of the strain (as determined by agar-dilution MIC). Serial dilutions of the same cultures were plated on non-selective media to determine the number of cells plated. The frequency of resistance was determined by dividing the number of colonies obtained on the selective plates after 24 hours of growth by the calculated total population plated. Typically 4 independently grown cultures were used to initiate 4 separate experiments, and the total combined number of obtained colonies and plated populations were used for calculations. Isolated colonies from selection plates were re-streaked on an additional plate containing the same concentration of compound used in the original selection. Clones were saved at -80 °C for subsequent analysis.
Whole-genome sequencing and data analysis. Genomic DNA of selected clones was prepared using an Epicentre MasterPure Complete DNA Purification Kit. Whole-genome sequencing libraries were prepared using an Illumina Nextera XT Library Preparation Kit. The libraries were sequenced using an Illumina MiSeq device with a V3 600-cycle reagent kit. Whole-genome sequencing data was analyzed using CLC Genomics Workbench Version 11. […]

[2] = tested on: Staphylococcus aureus ATCC 29213; test: MIC, S. aureus; format: cell-based
Description: Minimum inhibitory concentration (MIC) values were determined according to the Clinical Laboratory Standards Institute guidelines. Frequency of resistance was determined by plating ~5 × 10^8 bacterial cells on agar-solidified media plates containing test compound at concentrations corresponding to four times the measured solid-media MIC of the strains. Colonies were counted after 24 h, restreaked onto media containing the same concentration of compound, and the MIC remeasured against the assayed compound. Genomic DNA from isolated clones was sequenced by paired-end sequencing on an Illumina MiSeq device. Complete experimental details available in SI Appendix.
Cytotoxicity. The cytotoxicity assay was performed in HepG2 cells as previously described(10) […]
as §1, with “0.5 McFarland Standard. Serum MICs were conducted in 50% heat-inactivated pooled human serum (Sigma-Aldrich). Serum was heated to 56 °C for one hour and then filtered using a 0.2 µm” for “0.5”
Hemolysis. Hemolysis was conducted as previously described (11).
Frequency of Resistance. Frequency of resistance was assessed by spread plating between […] cfu of a freshly-grown culture of the strain of interest on plates containing a concentration of compound corresponding to 4 times the MIC of the strain (as determined by agar-dilution MIC). […] The frequency of resistance was determined by dividing the number of colonies obtained on the selective plates after 24 hours of growth by the calculated total population plated. […]
Whole-genome sequencing and data analysis. […] Whole-genome sequencing data was analyzed using CLC Genomics Workbench Version 11. To determine the genotype of MDR strains from the ENABLE strain collection, de novo assembled contigs were analyzed using ResFinder (12–14) […]

[3] = ATCC29213, read-out: MIC S. aureus ATCC 29213

Compound | MIC ([1]; MG1655, read-out: MIC CH6045) [mg/L] | MIC ([1]; MG1655, read-out: MIC CH6047) [mg/L] | MIC ([1]; MG1655, read-out: MIC CH6048) [mg/L] | MIC ([1]; MG1655, read-out: MIC CH6051) [mg/L] | MIC ([1]; MG1655, read-out: MIC CH7010) [mg/L] | MIC ([1]; MG1655, read-out: MIC CH7011) [mg/L] | MIC ([1]; MG1655, read-out: MIC CH7012) [mg/L] | MIC ([1]; MG1655, read-out: MIC CH7013) [mg/L] | MIC ([1]; MG1655, read-out: MIC CH7015) [mg/L] | MIC ([1]; MG1655, read-out: MIC CH7016) [mg/L] | MIC ([1]; MG1655, read-out: MIC CH8845) [mg/L] | MIC ([1]; MG1655, read-out: MIC CH8846) [mg/L] | MIC ([1]; MG1655, read-out: MIC CH8847) [mg/L] | MIC ([1]; MG1655, read-out: MIC CH8848) [mg/L] | MIC ([1]; MG1655, read-out: MIC CH8850) [mg/L] | MIC ([1]; MG1655, read-out: MIC CH8851) [mg/L] | MIC ([1]; MG1655, read-out: MIC CH8853) [mg/L] | MIC ([1]; MG1655, read-out: MIC CH8854) [mg/L] | MIC ([1]; MG1655, read-out: MIC CH8855) [mg/L] | MIC ([1]; MG1655, read-out: MIC CH8856) [mg/L] | other results
CC(=O)N1CCc2cc(S(=O)(=O)N3CCN(c4cccc(C(F)(F)F)c4)CC3)ccc21 [AZ1, reference compound] | 2 (≈ 4.41 µM) | > 64 | 0.5 (≈ 1.1 µM) | > 64 | 2 (≈ 4.41 µM) | 2 (≈ 4.41 µM) | 4 (≈ 8.82 µM) | 64 (≈ 141 µM) | > 64 | 2 (≈ 4.41 µM) | 2 (≈ 4.41 µM) | 2 (≈ 4.41 µM) | > 64 | 4 (≈ 8.82 µM) | 2 (≈ 4.41 µM) | 1 (≈ 2.21 µM) | 2 (≈ 4.41 µM) | 2 (≈ 4.41 µM) | > 64 | > 64 | MIC ([1]; MG1655, read-out: MIC CH8868): > 64 mg/L; MIC ([1]; MG1655, read-out: MIC CH8869): 0.125 mg/L (≈ 0.276 µM); MIC ([1]; MG1655, read-out: MIC CH8870): > 64 mg/L; MIC ([1]; MG1655, read-out: MIC CH8871): > 64 mg/L
Cc1cc(C#N)nc(N2CCN(S(=O)(=O)c3ccc(NC(=O)c4cc(CNCCCN)ccc4N(C)S(C)(=O)=O)cc3)CC2)n1.Cl.Cl [EBL-3599] |  |  |  |  |  |  |  |  |  |  |  |  |  |  |  |  |  |  |  |  | MIC ([2]; ATCC29213, WT, read-out: MIC S. aureus ATCC 29213): > 64 mg/L
Cc1cc(C#N)nc(N2CCN(S(=O)(=O)c3ccc(NC(=O)c4cc(CN5CC(CN)C5)ccc4N(C)S(C)(=O)=O)cc3)CC2)n1 [EBL-3647] |  |  |  |  |  |  |  |  |  |  |  |  |  |  |  |  |  |  |  |  | MIC [2, 3]: > 64 mg/L
CN(c1ccccc1C(=O)Nc1ccc(S(=O)(=O)N2CCCCC2)cc1)S(C)(=O)=O [JEDI-852] | 64 (≈ 142 µM) | > 64 | 32 (≈ 70.9 µM) | > 64 | 2 (≈ 4.43 µM) | 16 (≈ 35.4 µM) | 16 (≈ 35.4 µM) | > 64 | 32 (≈ 70.9 µM) | 16 (≈ 35.4 µM) | 32 (≈ 70.9 µM) | 32 (≈ 70.9 µM) | > 64 | > 64 | > 64 | 8 (≈ 17.7 µM) | > 64 | > 64 | > 64 | > 64 | MIC ([1]; MG1655, read-out: MIC CH8868): > 64 mg/L; MIC ([1]; MG1655, read-out: MIC CH8869): 4 mg/L (≈ 8.86 µM); MIC ([1]; MG1655, read-out: MIC CH8870): 32 mg/L (≈ 70.9 µM); MIC ([1]; MG1655, read-out: MIC CH8871): > 64 mg/L
CN(c1ccccc1C(=O)Nc1ccc(S(=O)(=O)N2CCN(c3cccc(C(F)(F)F)c3)CC2)cc1)S(C)(=O)=O [JEDI-1444] | 0.25 (≈ 0.419 µM) | 1 (≈ 1.68 µM) | 0.064 (≈ 0.107 µM) | > 2 | 0.064 (≈ 0.107 µM) | 0.25 (≈ 0.419 µM) | 0.064 (≈ 0.107 µM) | 0.125 (≈ 0.21 µM) | 0.064 (≈ 0.107 µM) | 0.125 (≈ 0.21 µM) | 1 (≈ 1.68 µM) | 0.25 (≈ 0.419 µM) | > 2 | 0.5 (≈ 0.838 µM) | 0.5 (≈ 0.838 µM) | 0.25 (≈ 0.419 µM) | 0.25 (≈ 0.419 µM) | 0.25 (≈ 0.419 µM) | > 2 | > 2 | MIC [2, 3]: > 64 mg/L; MIC ([1]; MG1655, read-out: MIC CH8868): 2 mg/L (≈ 3.35 µM); MIC ([1]; MG1655, read-out: MIC CH8869): 0.064 mg/L (≈ 0.107 µM); MIC ([1]; MG1655, read-out: MIC CH8870): 0.25 mg/L (≈ 0.419 µM); MIC ([1]; MG1655, read-out: MIC CH8871): 2 mg/L (≈ 3.35 µM)
